ChEMBL document CHEMBL1212697, “High-content single-cell drug screening with phosphospecific flow cytometry” (Nat Chem Biol, 2008)

How the values were obtained:
[1] = Inhibition of JAK-mediated IL4-induced Stat6 phosphorylation in BALB/c mouse CD8+ T cells by Phospho-Flow cytometry; type: cell-based; settings: T-cell
[2] = Inhibition of JAK-mediated IL7-induced Stat5 phosphorylation in BALB/c mouse CD11b-hi neutrophils by Phospho-Flow cytometry
[3] = Inhibition of JAK-mediated IL4-induced Stat6 phosphorylation in BALB/c mouse CD4+ T cells by Phospho-Flow cytometry; type: cell-based; settings: T-cell
[4] = Inhibition of JAK-mediated IL10-induced Stat3 phosphorylation in BALB/c mouse B cells by Phospho-Flow cytometry; type: cell-based
[5] = Inhibition of JAK-mediated IL6-induced Stat1 phosphorylation in BALB/c mouse B cells by Phospho-Flow cytometry; type: cell-based
[6] = Inhibition of JAK-mediated IL7-induced Stat5 phosphorylation in BALB/c mouse CD8+ T cells by Phospho-Flow cytometry; type: cell-based; settings: T-cell
[7] = Inhibition of JAK-mediated interferon-gamma-induced Stat1 phosphorylation in BALB/c mouse CD4+ T cells by Phospho-Flow cytometry; type: cell-based; settings: T-cell
[8] = Inhibition of JAK-mediated IL10-induced Stat3 phosphorylation in BALB/c mouse CD11b-hi neutrophils by Phospho-Flow cytometry
[9] = Inhibition of JAK-mediated IL15-induced Stat5 phosphorylation in BALB/c mouse CD8+ T cells by Phospho-Flow cytometry; type: cell-based; settings: T-cell
[10] = Inhibition of JAK-mediated interferon-gamma-induced Stat1 phosphorylation in BALB/c mouse […] T cells by Phospho-Flow cytometry; type: cell-based; settings: T-cell
[11] = Inhibition of JAK-mediated IL15-induced Stat5 phosphorylation in BALB/c mouse CD4+ T cells by Phospho-Flow cytometry; type: cell-based; settings: T-cell
[12] = Inhibition of JAK-mediated IL6-induced Stat3 phosphorylation in BALB/c mouse CD11b-int macrophages by Phospho-Flow cytometry
[13] = Inhibition of JAK-mediated IL4-induced Stat5 phosphorylation in BALB/c mouse CD11b-hi neutrophils by Phospho-Flow cytometry
[14] = Inhibition of JAK-mediated IL7-induced Stat5 phosphorylation in BALB/c mouse B cells by Phospho-Flow cytometry; type: cell-based
[15] = Inhibition of JAK-mediated interferon-gamma-induced Stat1 phosphorylation in BALB/c mouse CD11b-int macrophages by Phospho-Flow cytometry
[16] = Inhibition of JAK-mediated IL15-induced Stat5 phosphorylation in BALB/c mouse CD11b-int macrophages by Phospho-Flow cytometry
[17] = Inhibition of JAK-mediated IL6-induced Stat1 phosphorylation in BALB/c mouse CD11b-hi neutrophils by Phospho-Flow cytometry
[18] = Inhibition of JAK-mediated IL4-induced Stat5 phosphorylation in BALB/c mouse CD8+ T cells by Phospho-Flow cytometry; type: cell-based; settings: T-cell
[19] = Inhibition of JAK-mediated IL6-induced Stat3 phosphorylation in BALB/c mouse CD4+ T cells by Phospho-Flow cytometry; type: cell-based; settings: T-cell
[20] = Inhibition of JAK-mediated interferon-gamma-induced Stat1 phosphorylation in BALB/c mouse B cells by Phospho-Flow cytometry; type: cell-based
[21] = Inhibition of JAK-mediated IL6-induced Stat3 phosphorylation in BALB/c mouse B cells by Phospho-Flow cytometry; type: cell-based
[22] = Inhibition of JAK-mediated IL4-induced Stat5 phosphorylation in BALB/c mouse CD4+ T cells by Phospho-Flow cytometry; type: cell-based; settings: T-cell
[23] = Inhibition of JAK-mediated IL15-induced Stat5 phosphorylation in BALB/c mouse CD11b-hi neutrophils by Phospho-Flow cytometry
[24] = Inhibition of JAK-mediated IL6-induced Stat1 phosphorylation in BALB/c mouse CD8+ T cells by Phospho-Flow cytometry; type: cell-based; settings: T-cell
[25] = Inhibition of JAK-mediated IL10-induced Stat3 phosphorylation in BALB/c mouse CD8+ T cells by Phospho-Flow cytometry; type: cell-based; settings: T-cell
[26] = Inhibition of JAK-mediated IL6-induced Stat3 phosphorylation in BALB/c mouse CD8+ T cells by Phospho-Flow cytometry; type: cell-based; settings: T-cell
[27] = Inhibition of JAK-mediated IL4-induced Stat5 phosphorylation in BALB/c mouse B cells by Phospho-Flow cytometry; type: cell-based
[28] = Inhibition of JAK-mediated IL10-induced Stat3 phosphorylation in BALB/c mouse CD11b-int macrophages by Phospho-Flow cytometry
[29] = Inhibition of JAK-mediated IL4-induced Stat5 phosphorylation in BALB/c mouse CD11b-int macrophages by Phospho-Flow cytometry
[30] = Inhibition of JAK-mediated IL6-induced Stat1 phosphorylation in BALB/c mouse CD11b-int macrophages by Phospho-Flow cytometry
[31] = Inhibition of JAK-mediated IL6-induced Stat1 phosphorylation in BALB/c mouse CD4+ T cells by Phospho-Flow cytometry; type: cell-based; settings: T-cell
[32] = Inhibition of JAK-mediated IL7-induced Stat5 phosphorylation in BALB/c mouse CD4+ T cells by Phospho-Flow cytometry; type: cell-based; settings: T-cell
[33] = Inhibition of JAK-mediated interferon-gamma-induced Stat1 phosphorylation in BALB/c mouse CD11b-hi neutrophils by Phospho-Flow cytometry
[34] = Inhibition of JAK-mediated IL10-induced Stat3 phosphorylation in BALB/c mouse CD4+ T cells by Phospho-Flow cytometry; type: cell-based; settings: T-cell
[35] = Inhibition of JAK-mediated IL6-induced Stat3 phosphorylation in BALB/c mouse CD11b-hi neutrophils by Phospho-Flow cytometry
[36] = Inhibition of JAK-mediated IL7-induced Stat5 phosphorylation in BALB/c mouse CD11b-int macrophages by Phospho-Flow cytometry
[37] = Inhibition of JAK-mediated IL15-induced Stat5 phosphorylation in BALB/c mouse B cells by Phospho-Flow cytometry; type: cell-based
[38] = Inhibition of JAK-mediated IL4-induced Stat6 phosphorylation in BALB/c mouse CD11b-int macrophages by Phospho-Flow cytometry

Measured: IC50

C=CC(=O)c1ccc2ccccc2c1
< 20 µM: all assays above
